The target in one assay is Cyp-A (Homo sapiens, UniProt P62937). Briefly: PPIase activity, α-chymotrypsin-coupled enzymatic assay. The class given is biochemical. To be noted: 4° C., read-out: Kd determined by PPIase assay. As to the method:
(§1) PPIase activity is assessed with the α-chymotrypsin-coupled enzymatic assay [Determination of kinetic constants for peptidyl cis-trans isomerase by an improved spectrophotometric assay (1 991); Kofron J L, Kuzmic P, Kishore V, Colon-Bonilla E and Rich D., Biochemistry 30, 6127–6134]. α-Chymotrypsin selectively hydrolyses the C-terminal p-nitroanilide bond of the substrate in the trans X-Pro conformer only. This hydrolysis releases a chromophore 4-nitroaniline, the accumulation of which is recorded by measuring the absorbance at 400 nm as a function of time. […] Substrate (stock solution of 100 mM) was dissolved in LiCl/TFE. The experiment took place at 4° C. Constant temperature was maintained within the cuvette by a Peltier (PTP-1) temperature control unit. A mini magnetic stirring system (telemoduel from Variomag)) was used for mixing the solution in the cuvette after the addition of the substrate. A Perkin Elmer UV/VIS Lambda 20 spectrophotometer was used.
The following materials were used: • Substrate: […] (Bachem AG) (N-succinyl-Ala-Ala-Pro-Phe-pnitroanilide) • Proteins: Cyp-A solution was freshly prepared before the experiment from frozen stock solution, at the appropriate concentration by dilution in buffer 50 mM Hepes, 100 mM NaCl pH=8.0. α-chymotrypsin (Sigma)
In a typical experiment 90 μl of 2.5–30 nM cyclophilin was made up to 2520 μl with buffer A in a 3 ml glass cuvette. The cuvette then was preincubated for 30 min on ice. Immediately before the assay, 300 μl of chymotrypsin solution (50 mg/ml in 10 mM HCl) was added, followed by 90 μl of a 3.7 mM stock solution of Suc-Ala-Ala-Pro-PNA in LiCl (470 mM)/TFE. The reaction progress was monitored by the absorbance change at 400 nm that accompanies the hydrolysis of the amide bond and the release of 4-nitroaniline product.

Another assay deals with cyclophilin D (Homo sapiens, UniProt P30405). The experiment in a line: Rotamase activity (method of Kofron et al). It counts as biochemical. As to the method: as §1, with “used. […]” for “used.”
Another assay concerns the target Cyp-D Wild-type (Homo sapiens, UniProt P30405). Briefly: Fluorescence titration: interaction with Cyclophilin D. The class given is binding. As to the method:
Fluorescence Assay: Interaction with Cyclophilin D
Further fluorescence titration studies were undertaken to investigate the interaction of selected compounds of the invention with cyclophilin D. The assay was carried out in accordance with the method described in Maurice R. Eftink and Camillo A. Ghiron, [Fluorescence Quenching Studies with Proteins, Analytical Biochemistry 114, 199–227 (1981)].

Another assay concerns the target cyclophilin (Homo sapiens, UniProt P62937). Briefly: Binding studies, binding constant to cyclophilin.
Another assay has as its target Cyclophilin A (Homo sapiens, UniProt P62937). Briefly: Fluorescence assay: interaction with Cyclophilin A (dissociation constant). The class given is binding. Particulars: 20° C., read-out: Kd determined by fluorescence assay. As to the method: In each case, the binding constant was measured by means of a fluorescence assay, for example as disclosed by Husi, H. and Zurini, M. G. M. [Comparative binding studies of cyclophilins to cyclosporin-A and derivatives by fluorescence measurements, Analytical Biochemistry, 1994, 222, 251–255].
Fluorescence Assay: Interaction with Cyclophilin A
The dissociation constant (Kd) for a number of ligands has been was obtained by fluorescence measurements. Cyclophilin A has only one tryptophan, located about 8 Å from the centre of the active site making a hydrogen bond to the inhibitor cyclosporin when bound. After each addition of ligand, the portion of the protein bound is proportional to the fractional fluorescence change. Measurements were carried out using a Perkin Elmer LS50B fluorescence spectrophotometer. The experiments took place at 20° C. Constant temperature was maintained within the cuvette by a temperature control. The protein solution was equilibrated until the signal was stable. A 1.4 ml fluorescence cuvette was used (Hellma 6140F). The excitation wavelength was 280 nm and the emission wavelength was varied from 330 to 345 nm according to protein and ligand. Emission and excitation slits varied from 2.5 to 10 nm, determined by experimental parameters.
At this point the concentration of the bound ligand equals the free protein. For each ligand concentration one fluorescence value was measured, and at the same concentrations a reference emission value was taken. The difference between the two values was calculated and a new corrected value was used to determine the Kd graphically.
Cyp-A solutions of […] in 50 mMTris, 100 mM NaCl, pH=7.4 were used. Protein concentration varied according to the ligand under test.

Where two headings read alike, the source gives them in different places.

Chain of Cyclophilin A (P62937 whole entry): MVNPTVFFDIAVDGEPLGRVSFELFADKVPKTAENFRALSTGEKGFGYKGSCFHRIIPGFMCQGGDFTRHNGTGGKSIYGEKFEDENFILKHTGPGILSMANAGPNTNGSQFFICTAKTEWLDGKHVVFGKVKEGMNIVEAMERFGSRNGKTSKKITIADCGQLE
Chain of Cyp-A (P62937 whole entry): as above
Chain of Cyp-D Wild-type (P30405 30-207): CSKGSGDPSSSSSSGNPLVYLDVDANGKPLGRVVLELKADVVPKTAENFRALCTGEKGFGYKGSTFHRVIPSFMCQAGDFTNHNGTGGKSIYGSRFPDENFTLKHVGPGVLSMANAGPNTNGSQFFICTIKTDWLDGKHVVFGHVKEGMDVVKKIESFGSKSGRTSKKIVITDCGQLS
Chain of cyclophilin D (P30405 30-207): as above
Chain of cyclophilin (P62937 whole entry): as the sequence (P62937 whole entry) above

As for `CC1C(=O)CC(=O)CC1(C)C` (racemic) [EM 4/33/1], the dissociation constant Kd at Cyp-A was 134 µM.

`CC(C)[C@H](NC(=O)OCc1ccccc1)C(=O)OC1=CC(=O)CC(C)(C)C1` [EM 2/34, 3-(N-benzyloxycarbonyl-L-valinyloxy)-5,5-dimethyl-2-cyclohexen-1-one]: the “Rotamase activity % Control” value at cyclophilin D (50 μM) turned out to be 81 % Control; at cyclophilin D (100 μM), 80 % Control; on cyclophilin D (200 μM), 33 % Control. The dissociation constant (Kd) at Cyp-A was 23 µM; on Cyp-D Wild-type it was 347 µM; at cyclophilin it was approximately 1 µM.

Regarding `COC(=O)[C@H](Cc1ccccc1)NC(=C1C(=O)CC(C)(C)CC1=O)C(NC(=O)OCc1ccccc1)C(C)C` (stereo partly drawn) [EM 2/40, N-[1-(4,4-dimethyl-2,6-dioxocyclohexylidene)-2-benzyloxycarbonylamino-3-methylbutyl]phenylalanine methyl ester], the “Rotamase activity % Control” value at cyclophilin D (50 μM) came out at 96 % Control; at cyclophilin D (100 μM), 100 % Control; on cyclophilin D (200 μM), 59 % Control. In addition, the dissociation constant Kd is more than 25000 µM at Cyclophilin A and 110 µM at Cyp-D Wild-type.

As to `CC(C)C(NC(=O)OCc1ccccc1)C(O)=C1C(=O)CC(C)(C)CC1=O` (stereo not drawn) [EM 3/11/1, 1-(4,4-dimethyl-2,6-dioxocyclohexylidene)-2-benzyloxycarbonylamino-3-methylbutanol], the “Rotamase activity % Control” value on cyclophilin D (50 μM) worked out at 109 % Control; on cyclophilin D (100 μM), 102.5 % Control; at cyclophilin D (200 μM), 61 % Control. The Kd at Cyclophilin A was more than 25000 µM; at Cyp-D Wild-type it was 203 µM.

Regarding `COC(=O)[C@@H](NC1=CC(=O)CC(C)(C)C1)C(C)C` [EM 3/22/1], the “Rotamase activity % Control” value on cyclophilin D (50 μM) came out at 110 % Control; at cyclophilin D (100 μM), 102 % Control; at cyclophilin D (200 μM) it was 63 % Control. Also, the dissociation constant Kd on Cyclophilin A is more than 25000 µM; at Cyp-D Wild-type, 103 µM.

With `CC1(C)CC(=O)C=C(OC(=O)[C@H](Cc2ccccc2)NC(=O)OCc2ccccc2)C1` [EM 3/26/1/2], the “Rotamase activity % Control” value is reported as 83 % Control on cyclophilin D (50 μM), 72.5 % Control on cyclophilin D (100 μM) and 33 % Control at cyclophilin D (200 μM). Further, the dissociation constant Kd was more than 25000 µM at Cyclophilin A and 154 µM on Cyp-D Wild-type.

For `CC(C)C[C@H](NC(=O)OCc1ccccc1)C(=O)OC1=CC(=O)CC(C)(C)C1` [EM 3/26/2/5, 3-(N-benzyloxycarbonyl-L-leucinyloxy)-5,5-dimethyl-2-cyclohexen-1-one], the “Rotamase activity % Control” value at cyclophilin D (50 μM) amounted to 79 % Control; at cyclophilin D (100 μM), 78 % Control; at cyclophilin D (200 μM) it was 52 % Control. Moreover, the Kd on Cyp-D Wild-type is 116 µM.

With `COC(=O)[C@@H](NC(=O)OCc1ccccc1)C(C)C` [EM 3/27], the entries for the “Rotamase activity % Control” value at cyclophilin D (50 μM), on cyclophilin D (100 μM) and at cyclophilin D (200 μM) were 111 % Control, 96 % Control and 60 % Control, respectively.

Turning to `CC(C)[C@H](NC(=O)OC(C)(C)C)C(=O)OC1=CC(=O)CC(C)(C)C1` [EM 3/29/1/1], the “Rotamase activity % Control” value is on record as 107 % Control at cyclophilin D (50 μM), 77.5 % Control at cyclophilin D (100 μM) and 50 % Control on cyclophilin D (200 μM). Also, binding on Cyp-D Wild-type was characterised by a dissociation constant (Kd) of 362 µM.

As to `CC(C)COC(=O)OC1=CC(=O)CC(C)(C)C1` [EM 3/48/2/1], the dissociation constant (Kd) at Cyclophilin A turned out to be 130 µM.

Regarding `CC(C)[C@H](NC(=O)OCc1ccccc1)C(=O)OC1=CC(=O)C(C)C(C)(C)C1` (stereo partly drawn) [EM 4/10/1], the “Rotamase activity % Control” value on cyclophilin D (50 μM) is recorded as 78 % Control; on cyclophilin D (100 μM) it was 84.5 % Control; on cyclophilin D (200 μM), 60 % Control. Moreover, the Kd on Cyp-A was 20 µM; on Cyp-D Wild-type, 815 µM.

For `CC1(C)CC(=O)C=C(N)C1` [EM 4/12/2], the “Rotamase activity % Control” value is recorded as 104 % Control on cyclophilin D (50 μM), 106.5 % Control on cyclophilin D (100 μM) and 98 % Control at cyclophilin D (200 μM). Further, binding on Cyp-D Wild-type was put at a Kd of 107 µM.

Regarding `COC(=O)N[C@H](C(=O)OC1=CC(=O)CC(C)(C)C1)C(C)C` [EM 4/18/1], the Kd on Cyclophilin A is 70 µM.

Take `CC(C)[C@H](NC(=O)OCc1ccccc1)C(=O)OC1=CC(=O)C(C)(C)C(C)(C)C1` [EM 4/21/1]: the Kd at Cyclophilin A is 68 µM.

Consider `COC(=O)CC1C(=O)CC(=O)CC1(C)C` (stereo not drawn) [EM 4/35/1/1], for which the dissociation constant Kd at Cyclophilin A was 45 µM.

Turning to `CC1(C)CC(=O)CC(=O)C1Cc1ccccc1` (stereo not drawn) [EM 5/11], the results for the “Rotamase activity % Control” value on cyclophilin D (50 μM), on cyclophilin D (100 μM) and on cyclophilin D (200 μM) were 84 % Control, 99 % Control and 71 % Control, respectively. Further, the Kd on Cyp-D Wild-type amounted to 170 µM.

Take `CC1(C)CC(=O)CC(=O)C1C/C=C/c1ccccc1` (stereo not drawn) [EM 5/12/3]: the Kd on Cyclophilin A is 85 µM.

On to `CC1(C)CC(=O)CC(=O)C1` [dimedone, reference compound], for which the Kd on cyclophilin (read-out: binding constant (Kd) to cyclophilin, by way of comparison) was 22000 µM.

In general, Kd refers to the free concentration of one partner at which half of the binding sites on the other are occupied at equilibrium, for simple one-to-one binding.

For the origin of these results see US7223795B2, “Modified peptide derivatives and methods of use thereof” (Cyclacel Limited, priority 2000, dated 2007).
